The record followed here is ChEMBL document CHEMBL5543127, “Design, Synthesis, and Biological Evaluation of 2-Phenoxyalkylhydrazide Benzoxazole Derivatives as Quorum Sensing Inhibitors with Strong Antibiofilm Effect” (J Med Chem, 2024).

Assay [1] has as its system Staphylococcus aureus. Briefly: Anti-microbial activity against erythromycin-susceptible Staphylococcus aureus ATCC25923 incubated for 20 hrs By CLSI based micro-dilution method. Format: functional.
The test system of a further assay is Escherichia coli. Briefly: Anti-microbial activity against penicillin-susceptible Escherichia coli ATCC25922 incubated for 20 hrs By CLSI based micro-dilution method. Format: functional.
Assay [2] deals with Pseudomonas aeruginosa. Briefly: Inhibition of protease in logarithmic growth phase Pseudomonas aeruginosa PAO1 assessed as inhibition rate at 102.4 microg/ml measured after 32 hrs. To be noted: dose 102.4 µg/ml.
The subject of another assay is Bacillus pumilus. Briefly: Anti-microbial activity against Bacillus pumilus CMCC63202 incubated for 20 hrs By CLSI based micro-dilution method. Format: functional.
The test system of assay [3] is Staphylococcus aureus. Briefly: Anti-microbial activity against methicillin-resistant Staphylococcus aureus ATCC43300 incubated for 20 hrs By CLSI based micro-dilution method. Format: functional.
For assay [4], the system named is Pseudomonas aeruginosa. Briefly: Antibacterial activity against Pseudomonas aeruginosa PAO1 at logarithmic growth phase assessed as growth inhibition at 153.6 microg/ml measured upto 25 hrs by growth curve assay. To be noted: dose 153.6 µg/ml. It counts as functional, organism-based.
The next assay concerns Bacillus subtilis. Briefly: Anti-microbial activity against Bacillus subtilis ATCC9372 incubated for 20 hrs By CLSI based micro-dilution method. It counts as functional.
Assay [5] has as its system Pseudomonas aeruginosa. Briefly: Anti-microbial activity against Pseudomonas aeruginosa PAO1 incubated for 20 hrs By CLSI based micro-dilution method. It counts as functional.
Assay [6] has as its system Pseudomonas aeruginosa. Briefly: Anti-microbial activity against penicillin-susceptible Pseudomonas aeruginosa 27853 incubated for 20 hrs By CLSI based micro-dilution method. It counts as functional.
For assay [7], the system named is Pseudomonas aeruginosa. Briefly: Antibacterial activity against Pseudomonas aeruginosa 27853 at logarithmic growth phase assessed as growth inhibition at 153.6 microg/ml measured upto 25 hrs by growth curve assay. It counts as functional, organism-based. To be noted: dose 153.6 µg/ml.
Assay [8] can be described thus: Inhibition of quorum sensing system in Pseudomonas aeruginosa PAO1 at logarithmic growth period assessed as inhibition of pyocyanin production at 102.4 microg/ml incubated for 18 hrs by pyocyanin inhibition assay. To be noted: dose 102.4 µg/ml.
Assay [9] deals with Pseudomonas aeruginosa. Briefly: Antibiofilm activity against logarithmic growth phase Pseudomonas aeruginosa PAO1 assessed as inhibition of biofilm formation at 16 microg/ml incubated for 20 hrs by crystal violet staining based analysis. It counts as functional. The conditions noted are these: dose 16.0 µg/ml.
Assay [10] deals with Pseudomonas aeruginosa. Briefly: Induction of anti-bacterial effect in Pseudomonas aeruginosa PAO1 assessed as synergistic effect by measuring reduction in bacterial survival in presence of clarithromycin measured after 24 hrs incubation. The conditions noted are these: dose 8-128 µg/ml. Format: functional, organism-based.
The subject of assay [11] is Pseudomonas aeruginosa. Briefly: Antibiofilm activity against logarithmic growth phase Pseudomonas aeruginosa PAO1 assessed as inhibition of biofilm formation at 32 microg/ml incubated for 20 hrs by crystal violet staining based analysis. Format: functional.
Assay [12] concerns Pseudomonas aeruginosa. Briefly: Induction of anti-bacterial effect in Pseudomonas aeruginosa PAO1 assessed as synergistic effect by measuring reduction in bacterial survival in presence of ciprofloxacin measured after 24 hrs incubation. It counts as functional, organism-based. The conditions noted are these: dose 8-128 µg/ml.

Molecules are shown by their SMILES. Converted amounts (≈) assume the structure as drawn. The source made the active and inactive calls. No cut-off for these calls is given here.

Regarding `CCCCCCCCCCCC(=O)N/N=c1\sc2ccccc2n1C`, the MIC with Staphylococcus aureus [1], in the assay on Escherichia coli, in the assay with Bacillus pumilus, against Staphylococcus aureus [3], against Bacillus subtilis and against Pseudomonas aeruginosa [5] was > 512 µg/mL throughout. The MIC in the assay with Pseudomonas aeruginosa [6] is > 512 µg/mL. Moreover, the inhibition in the assay on Pseudomonas aeruginosa [2] is > 20%. Moreover, the outcome in the assay on Pseudomonas aeruginosa [4] and with Pseudomonas aeruginosa [7] was inactive.
Turning to `COc1ccccc1/C=N/Nc1nc2ccccc2o1`, the MIC with Staphylococcus aureus [1] is 256 µg/mL (≈ 958 µM); in the assay with Escherichia coli, > 512 µg/mL; with Bacillus pumilus, > 512 µg/mL; against Staphylococcus aureus [3], > 512 µg/mL; against Bacillus subtilis it was 512 µg/mL (≈ 1920 µM); in the assay with Pseudomonas aeruginosa [5], > 512 µg/mL. Besides, the minimal inhibitory concentration (MIC) against Pseudomonas aeruginosa [6] was > 512 µg/mL. For the same molecule, the result in the assay with Pseudomonas aeruginosa [4] and in the assay on Pseudomonas aeruginosa [7] was inactive. The inhibition entry in assay [8] is “inactive”.
As to `Cn1/c(=N/NC(=O)c2ccc(F)cc2)sc2ccccc21`, the minimal inhibitory concentration (MIC) in the assay on Staphylococcus aureus [1], in the assay with Escherichia coli, with Bacillus pumilus, with Staphylococcus aureus [3], against Bacillus subtilis and against Pseudomonas aeruginosa [5] was > 512 µg/mL in each case. Also, the minimum inhibitory concentration (MIC) with Pseudomonas aeruginosa [6] is > 512 µg/mL. Further, the inhibition in the assay with Pseudomonas aeruginosa [2] is > 20%. Moreover, the outcome in the assay on Pseudomonas aeruginosa [4] and in the assay on Pseudomonas aeruginosa [7] was inactive.
Turning to `Cc1ccc(OCC(=O)NNc2nc3ccccc3o2)cc1`, the minimum inhibitory concentration (MIC) against Staphylococcus aureus [1] was 512 µg/mL (≈ 1720 µM); in the assay with Escherichia coli it was > 512 µg/mL; with Bacillus pumilus it was > 512 µg/mL; in the assay on Staphylococcus aureus [3] it was 512 µg/mL (≈ 1720 µM); against Bacillus subtilis, 512 µg/mL (≈ 1720 µM); in the assay with Pseudomonas aeruginosa [5] it was > 512 µg/mL. In the assay with Pseudomonas aeruginosa [6], this molecule showed an MIC of 512 µg/mL (≈ 1720 µM). The inhibition in the assay with Pseudomonas aeruginosa [2] amounted to 13.9%. Moreover, the result in the assay with Pseudomonas aeruginosa [4] and in the assay on Pseudomonas aeruginosa [7] was inactive. Further, in assay [8], the inhibition entry is “inactive”.
For the molecule `Cn1/c(=N/NC(=O)c2ccccc2F)sc2ccccc21`, the minimal inhibitory concentration (MIC) against Staphylococcus aureus [1], with Escherichia coli, against Bacillus pumilus, in the assay on Staphylococcus aureus [3], with Bacillus subtilis and with Pseudomonas aeruginosa [5] was > 512 µg/mL in each case. The MIC against Pseudomonas aeruginosa [6] is > 512 µg/mL. The inhibition in the assay with Pseudomonas aeruginosa [2] is > 20%. For the same molecule, the result in the assay on Pseudomonas aeruginosa [4] and in the assay on Pseudomonas aeruginosa [7] was inactive.
For the molecule `Cc1cccc2sc(NNC(=O)CCCCOc3ccc(F)cc3)nc12`, the minimum inhibitory concentration (MIC) against Staphylococcus aureus [1] is 512 µg/mL (≈ 1370 µM); against Escherichia coli, > 512 µg/mL; against Bacillus pumilus, 512 µg/mL (≈ 1370 µM); against Staphylococcus aureus [3], 512 µg/mL (≈ 1370 µM); with Bacillus subtilis, 512 µg/mL (≈ 1370 µM); against Pseudomonas aeruginosa [5], > 512 µg/mL. In the assay on Pseudomonas aeruginosa [6], the MIC is > 512 µg/mL. Moreover, the inhibition entry (in the assay with Pseudomonas aeruginosa [9]; in [8]) was “Active” in each case. In the assay with Pseudomonas aeruginosa [2], the inhibition was > 20%. Further, the outcome with Pseudomonas aeruginosa [4] and in the assay with Pseudomonas aeruginosa [7] was inactive. Further, the Activity result in the assay with Pseudomonas aeruginosa [10] and in the assay with Pseudomonas aeruginosa [12] was “Dose-Dependent Effect” each time. Also, the inhibition at 32 µg/mL in the assay on Pseudomonas aeruginosa [11] was > 25.4%.
Consider `COc1cccc(/C=N/Nc2nc3ccccc3o2)c1`, for which the MIC against Staphylococcus aureus [1] was 128 µg/mL (≈ 479 µM); against Escherichia coli, > 512 µg/mL; in the assay with Bacillus pumilus, 512 µg/mL (≈ 1920 µM); against Staphylococcus aureus [3] it was > 512 µg/mL; with Bacillus subtilis, 512 µg/mL (≈ 1920 µM); in the assay with Pseudomonas aeruginosa [5] it was > 512 µg/mL. Moreover, the MIC against Pseudomonas aeruginosa [6] is > 512 µg/mL. Further, the outcome in the assay with Pseudomonas aeruginosa [4] and with Pseudomonas aeruginosa [7] was inactive. Also, in assay [8], the inhibition entry is “inactive”.
Regarding `Cn1/c(=N/NC(=O)c2cccc(Cl)c2)sc2ccccc21`, the MIC in the assay on Staphylococcus aureus [1], in the assay on Escherichia coli, against Bacillus pumilus, against Staphylococcus aureus [3], with Bacillus subtilis and with Pseudomonas aeruginosa [5] was > 512 µg/mL in each case. The minimal inhibitory concentration (MIC) in the assay on Pseudomonas aeruginosa [6] is > 512 µg/mL. In addition, in the assay on Pseudomonas aeruginosa [9], the inhibition entry is “Active”. The inhibition in the assay with Pseudomonas aeruginosa [2] is > 20%; in assay [8], 40.1%. Further, the outcome in the assay on Pseudomonas aeruginosa [4] and with Pseudomonas aeruginosa [7] was inactive. Moreover, the inhibition at 32 µg/mL with Pseudomonas aeruginosa [11] is > 25.4%.
With `O=C(CCCOc1ccc(Cl)cc1)NNc1nc2ccccc2o1`, the minimal inhibitory concentration (MIC) is 256 µg/mL (≈ 740 µM) against Staphylococcus aureus [1]; > 512 µg/mL in the assay with Escherichia coli; 512 µg/mL (≈ 1480 µM) against Bacillus pumilus; 256 µg/mL (≈ 740 µM) in the assay on Staphylococcus aureus [3]; 512 µg/mL (≈ 1480 µM) with Bacillus subtilis; > 512 µg/mL against Pseudomonas aeruginosa [5]. This molecule registered an MIC against Pseudomonas aeruginosa [6] of 512 µg/mL (≈ 1480 µM). Also, the inhibition result in the assay with Pseudomonas aeruginosa [9] was “Active”. Besides, the inhibition in the assay on Pseudomonas aeruginosa [2] turned out to be 30%. Further, the Activity result with Pseudomonas aeruginosa [10] and in the assay on Pseudomonas aeruginosa [12] was “Dose-Dependent Effect” throughout. In addition, in the assay with Pseudomonas aeruginosa [11], the inhibition at 32 µg/mL is > 25.4%. The inhibition entry in assay [8] is “inactive”.
For `Clc1ccc(/C=N/Nc2nc3ccccc3o2)cc1`, the minimal inhibitory concentration (MIC) is 64 µg/mL (≈ 236 µM) against Staphylococcus aureus [1]; > 512 µg/mL against Escherichia coli; > 512 µg/mL against Bacillus pumilus; 512 µg/mL (≈ 1880 µM) in the assay on Staphylococcus aureus [3]; 512 µg/mL (≈ 1880 µM) against Bacillus subtilis; > 512 µg/mL in the assay on Pseudomonas aeruginosa [5]. Moreover, in the assay on Pseudomonas aeruginosa [6], the minimal inhibitory concentration (MIC) is > 512 µg/mL. Also, the inhibition with Pseudomonas aeruginosa [2] came out at 21.4%. In addition, the result with Pseudomonas aeruginosa [4] and in the assay with Pseudomonas aeruginosa [7] was inactive. Further, the inhibition result in assay [8] was “inactive”.
As to `COc1ccc(/C=N/Nc2nc3ccccc3o2)cc1OC`, the MIC in the assay with Staphylococcus aureus [1] is 128 µg/mL (≈ 431 µM); in the assay with Escherichia coli, > 512 µg/mL; in the assay with Bacillus pumilus it was 256 µg/mL (≈ 861 µM); with Staphylococcus aureus [3], 256 µg/mL (≈ 861 µM); against Bacillus subtilis, 512 µg/mL (≈ 1720 µM); with Pseudomonas aeruginosa [5], > 512 µg/mL. The MIC with Pseudomonas aeruginosa [6] was > 512 µg/mL. In the assay on Pseudomonas aeruginosa [9], the inhibition entry was “Active”. The inhibition stood at 21.9% with Pseudomonas aeruginosa [2] and 40.3% in [8]. Besides, the outcome in the assay on Pseudomonas aeruginosa [4] and in the assay with Pseudomonas aeruginosa [7] was inactive. Moreover, the inhibition at 32 µg/mL with Pseudomonas aeruginosa [11] is > 25.4%.
Regarding `Clc1cccc(/C=N/Nc2nc3ccccc3o2)c1`, the minimum inhibitory concentration (MIC) in the assay on Staphylococcus aureus [1] was 256 µg/mL (≈ 942 µM); with Escherichia coli, > 512 µg/mL; with Bacillus pumilus, 512 µg/mL (≈ 1880 µM); against Staphylococcus aureus [3], > 512 µg/mL; in the assay on Bacillus subtilis, 512 µg/mL (≈ 1880 µM); in the assay with Pseudomonas aeruginosa [5], > 512 µg/mL. Also, the minimal inhibitory concentration (MIC) in the assay with Pseudomonas aeruginosa [6] is > 512 µg/mL. The result with Pseudomonas aeruginosa [4] and with Pseudomonas aeruginosa [7] was inactive. For the same molecule, the inhibition result in assay [8] was “inactive”.
On to `O=C(COc1cccc(F)c1)NNc1nc2ccccc2o1`, for which the minimal inhibitory concentration (MIC) in the assay on Staphylococcus aureus [1] is 512 µg/mL (≈ 1700 µM); in the assay with Escherichia coli it was > 512 µg/mL; against Bacillus pumilus, > 512 µg/mL; in the assay with Staphylococcus aureus [3], > 512 µg/mL; with Bacillus subtilis, 512 µg/mL (≈ 1700 µM); in the assay on Pseudomonas aeruginosa [5] it was 512 µg/mL (≈ 1700 µM). The molecule also gave a minimal inhibitory concentration (MIC) in the assay with Pseudomonas aeruginosa [6] of 512 µg/mL (≈ 1700 µM). Besides, the inhibition in the assay with Pseudomonas aeruginosa [2] is 10%. Moreover, the outcome in the assay on Pseudomonas aeruginosa [4] and with Pseudomonas aeruginosa [7] was inactive. The inhibition entry in assay [8] is “inactive”.
For the molecule `O=C(CCCCOc1ccc(F)cc1)NNc1nc2ccccc2s1`, the MIC against Staphylococcus aureus [1], in the assay with Escherichia coli, against Bacillus pumilus, against Staphylococcus aureus [3], against Bacillus subtilis and against Pseudomonas aeruginosa [5] was > 512 µg/mL in each case. Further, the MIC in the assay on Pseudomonas aeruginosa [6] was > 512 µg/mL. Besides, the result with Pseudomonas aeruginosa [4] and in the assay on Pseudomonas aeruginosa [7] was inactive. For the same molecule, the inhibition entry in assay [8] is “Active”.
